c1ccc2c(c1)ccc1c3ccccc3ccc21 [chrysene]
Crystal 2
Details | vapor or sublimation pressure [kPa]
372.4 K | 1.74e-05
380.7 K | 3.72e-05
385.2 K | 5.37e-05
389.2 K | 7.61e-05
389.4 K | 7.5e-05
393.6 K | 0.000103
394.2 K | 0.000136
396.1 K | 0.000148
398.1 K | 0.000168
398.2 K | 0.000158
400 K | 0.000202
400.4 K | 0.000212
402.8 K | 0.000263
403 K | 0.000254
404.8 K | 0.000277
404.9 K | 0.000292
405.1 K | 0.000306
406.8 K | 0.000336
408.6 K | 0.000379

C1=Cc2cccc3cccc1c23 [acenaphthylene]
Crystal
Details | vapor or sublimation pressure [kPa]
297.4 K | 0.000488
297.6 K | 0.000531
304.6 K | 0.00105
304.7 K | 0.00108
306.7 K | 0.00114
311.9 K | 0.00182
314.8 K | 0.00345
318.5 K | 0.00345
318.6 K | 0.00347
319.7 K | 0.00414

c1cc2cccc3c4cccc5cccc(c(c1)c23)c54 [perylene]
Crystal
Details | vapor or sublimation pressure [kPa]
390 K | 1.37e-05
390.5 K | 1.47e-05
391.2 K | 1.49e-05
393.7 K | 2.15e-05
397.7 K | 3.15e-05
398.3 K | 3.03e-05
402.2 K | 4.58e-05
402.8 K | 4.76e-05
403.7 K | 5.19e-05
405.7 K | 6.67e-05
406.6 K | 7.2e-05
406.8 K | 7.03e-05
410.5 K | 0.0001
411.3 K | 0.000102
412.7 K | 0.000132
413.4 K | 0.000142
414.4 K | 0.000148
418.4 K | 0.000196
428.6 K | 0.000443
432.4 K | 0.000606

c1ccc2c(c1)c1ccccc1c1ccccc21 [triphenylene]
Crystal
Details | vapor or sublimation pressure [kPa]
368.4 K | 1.7e-05
377.4 K | 4.48e-05
377.7 K | 4.51e-05
378 K | 4.64e-05
386.7 K | 0.000116
390.7 K | 0.000178
394.9 K | 0.000264
395 K | 0.000258
399.1 K | 0.000375

c1ccc2c(c1)-c1cccc3cccc-2c13 [fluoranthene]
Crystal
Details | vapor or sublimation pressure [kPa]
326.8 K | 3.96e-05
326.9 K | 4.11e-05
331 K | 6.16e-05
331.8 K | 6.32e-05
336.7 K | 0.000117
338.7 K | 0.000129
338.8 K | 0.000131
338.9 K | 0.000144
340.2 K | 0.000154
342.5 K | 0.000206
343.9 K | 0.000248
345.3 K | 0.000258
348 K | 0.00033
348.5 K | 0.000341
350.9 K | 0.000463
354.1 K | 0.00058
359.2 K | 0.00105

c1cc2c3c(cccc3c1)CC2 [acenaphthene]
Crystal
Details | vapor or sublimation pressure [kPa]
297.6 K | 0.00029
299.7 K | 0.000362
300.5 K | 0.000413
301.6 K | 0.00044
302.8 K | 0.000508
306.1 K | 0.000693
310.7 K | 0.00112
315.6 K | 0.0018

c1ccc2c(c1)cc1ccc3cccc4ccc2c1c34 [benzo[a]pyrene]
Crystal
Details | vapor or sublimation pressure [kPa]
392.3 K | 7.31e-05
393.5 K | 7.96e-05
397.8 K | 0.000129
400.8 K | 0.000167
402.3 K | 0.00018
405.2 K | 0.000217
406.6 K | 0.000273
411.5 K | 0.000394
411.8 K | 0.000418
415.1 K | 0.000494
415.5 K | 0.000537
419 K | 0.000697
419.7 K | 0.000733
421.2 K | 0.000785
423.8 K | 0.00098
423.9 K | 0.00102

c1ccc2cc3ccccc3cc2c1 [anthracene]
Crystal
Details | vapor or sublimation pressure [kPa]
322.2 K | 1.6e-05
327 K | 2.6e-05
329.1 K | 3.33e-05
333.4 K | 4.91e-05
336.3 K | 7.2e-05
338.7 K | 9.43e-05
340.4 K | 0.00011
341.2 K | 0.000119
342.3 K | 0.000131
343.6 K | 0.000141
344.2 K | 0.000164
346.4 K | 0.000192
348.2 K | 0.00026

c1cc2ccc3cccc4ccc(c1)c2c34 [pyrene]
Crystal
Details | vapor or sublimation pressure [kPa]
322 K | 8.95e-06
337.1 K | 5.31e-05
342.1 K | 9.43e-05
347.1 K | 0.000147
352.3 K | 0.000227
356.8 K | 0.000339
362.1 K | 0.000599
372 K | 0.0013
381.4 K | 0.00281

c1ccc2c(c1)Cc1ccccc1-2 [fluorene]
Crystal
Details | vapor or sublimation pressure [kPa]
298 K | 6.61e-05
298.1 K | 6.52e-05
299.8 K | 8.4e-05
301.4 K | 9.88e-05
304.3 K | 0.000141
306.6 K | 0.000178
306.9 K | 0.000195
308.1 K | 0.000218
309.8 K | 0.000261
311.2 K | 0.000301
314.3 K | 0.000414
316 K | 0.00046
316.5 K | 0.000531
317.3 K | 0.000581
317.6 K | 0.000613
320.3 K | 0.00076
324.4 K | 0.00127

— the NIST ThermoML archive (doi:10.1021/je7005133)
